# From patent US11208404B2 (PERENNA PHARMACEUTICALS, INC., priority 2017, dated 2021)
# Where two headings read alike, the source gives them in different places.
# What was measured:
# ALCAT1 [1] = target: T1, ALCAT1 (Homo sapiens (Human), UniProt Q6UWP7); experiment: In vitro acyltransferase assay for ALCAT1 inhibitors; format: biochemical; conditions: for inhibition at 1 µM / % inh @ 1 μM: 1 μM compound; for inhibition at 1 µM / inhibition at 10 µM / % inh @ 1 μM: in vitro enzymatic assay; for inhibition at 10 µM: 10 μM compound; for IC50: ALCAT1 enzyme activity
# Procedure, shortened: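 Membrane fractions from Sf9 cells expressing human ALCAT1 incubated 30 min at room temperature with 100 µM MLCL or LPG and 25 µM [14C]acyl-CoA (or 100 µM NBD-CoA) in 50 mM Tris/HCl pH 7.0.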
# Target sequence in this assay (Q6UWP7 whole entry): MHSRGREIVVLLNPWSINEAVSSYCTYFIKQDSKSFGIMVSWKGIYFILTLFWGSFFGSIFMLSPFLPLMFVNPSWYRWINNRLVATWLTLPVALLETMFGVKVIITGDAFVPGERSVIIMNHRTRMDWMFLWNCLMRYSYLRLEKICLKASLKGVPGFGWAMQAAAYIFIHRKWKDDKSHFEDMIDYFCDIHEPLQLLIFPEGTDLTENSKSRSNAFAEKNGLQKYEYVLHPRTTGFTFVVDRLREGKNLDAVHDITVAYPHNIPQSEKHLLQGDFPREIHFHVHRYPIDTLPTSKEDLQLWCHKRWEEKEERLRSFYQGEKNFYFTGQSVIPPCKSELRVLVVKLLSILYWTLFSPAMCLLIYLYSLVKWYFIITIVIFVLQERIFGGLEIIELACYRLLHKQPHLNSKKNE
# ALCAT1 [2] = target: T1, ALCAT1; experiment: Cell-based assay for ALCAT inhibitor compounds (H9C2 cells); conditions: H9c2, 3 μM compound; H9C2 vector cell line and H9C2 with stable overexpression of ALCAT1
# Protocol: The assay was performed on the H9C2 vector cell line and H9C2 with stable overexpression of ALCAT1. Materials used in the protocol were CoA, LPG, compounds, chloroform, methanol, 0.9% KCl, 6-well-plates, 1.5 mL tubes, DMEM, FBS, P/S and PBS.
# Cells were seeded in 6-well-plates, 8×10^5 cells/well, and cultured at 37° C. in 5% CO2 overnight.
# Cells were washed once with ice-cold PBS, collected in ice-cold PBS and centrifuged at 5000 rpm for 5 min at 4° C. 200 μL of chloroform: methanol (2:1) was added to the cell pellet, which was vortexed to suspend the cells and incubated at RT for 1 hr.
# 40 μL of 0.9% KCl was added and the sample was vortexed before centrifugation at 10000 rpm for 5 min at RT. The aqueous phase (upper layer) was discarded and the organic phase (lower layer) was loaded to a TLC plate (10 cm×20 cm), 40 μL/sample.
# The plates were developed in chloroform: methanol: water (65:25:4) for about 30 min and scanned using a Typhoon Scanner. The bands intensity was analysed using ImageJ and the inhibition activity of the tested compounds was calculated.
# Compound inhibitors for ALCAT1 enzyme were analyzed by an in vitro cell-based assay as detailed above.
# Target sequence in this assay (Q6UWP7 whole entry, species assumed): as the sequence (Q6UWP7 whole entry) above
# [3] = read-out: IC50 values (upper bounds)
# [4] = triplicates, GraphPad, read-out: IC50
inhibition at 1 µM (ALCAT1 [1]) [%],inhibition at 10 µM (ALCAT1 [1]) [%],IC50 (ALCAT1 [1]; [3]) [nM],IC50 (ALCAT1 [1]; [4]) [nM],inhibition at 3 µM (ALCAT1 [2]) [%],% inh @ 1 μM (ALCAT1 [1]),SMILES
95,100,< 100,31,9,–,"CCOc1ccc(Br)cc1C(=O)Nc1cccc(-c2nnc(-c3ccco3)o2)c1 [Compound 118, 5-Bromo-2-ethoxy-N-(3-(5-(furan-2-yl)-1,3,4-oxadiazol-2-yl)phenyl)benzamide]"
100,100,–,48,27,–,"COc1c(Br)cc(Br)cc1C(=O)Nc1cccc(-c2nnc(-c3ccco3)o2)c1 [Compound 168, 3,5-Dibromo-N-(3-(5-(furan-2-yl)-1,3,4-oxadiazol-2-yl)phenyl)-2-methoxybenzamide]"
100,–,< 100,24,62,100/100%,"COc1ccc(Br)cc1C(=O)Nc1cc(-c2nnc(-c3ccco3)o2)ccc1F [Compound 183, 5-Bromo-N-(2-fluoro-5-(5-(furan-2-yl)-1,3,4-oxadiazol-2-yl)phenyl)-2-methoxybenzamide]"
100,–,< 100,18,57,100/100%,"COc1ccc(Cl)cc1C(=O)Nc1cc(-c2nnc(-c3ccco3)o2)ccc1F [Compound 184, 5-Chloro-N-(2-fluoro-5-(5-(furan-2-yl)-1,3,4-oxadiazol-2-yl)phenyl)-2-methoxybenzamide]"
97,–,–,76,36,98%,"CCCOc1ccc(C)cc1C(=O)Nc1cc(-c2nnc(-c3ccco3)o2)ccc1F [Compound 208, N-(2-Fluoro-5-(5-(furan-2-yl)-1,3,4-oxadiazol-2-yl)phenyl)-5-methyl-2-propoxybenzamide]"
100,100,< 100,25,37,–,"CCCOc1ccc(Cl)cc1C(=O)Nc1cc(-c2nnc(-c3ccco3)o2)ccc1F [Compound 209, 5-Chloro-N-(2-fluoro-5-(5-(furan-2-yl)-1,3,4-oxadiazol-2-yl)phenyl)-2-propoxybenzamide]"
97,97,–,66,24,–,"CCCOc1ccc(F)cc1C(=O)Nc1cc(-c2nnc(-c3ccco3)o2)ccc1F [Compound 210, 5-Fluoro-N-(2-fluoro-5-(5-(furan-2-yl)-1,3,4-oxadiazol-2-yl)phenyl)-2-propoxybenzamide]"
100,–,< 100,19,45,100/100%,"CCOc1ccc(Cl)cc1C(=O)Nc1cc(-c2nnc(-c3ccco3)o2)ccc1F [Compound 216, 5-chloro-2-ethoxy-N-(2-fluoro-5-(5-(furan-2-yl)-1,3,4-oxadiazol-2-yl)phenyl)benzamide]"
99,–,< 100,34,22,98%,"CCOc1ccc(CC)cc1C(=O)Nc1cccc(-c2nnc(-c3ccco3)o2)c1 [Compound 219, 2-Ethoxy-5-ethyl-N-(3-(5-(furan-2-yl)-1,3,4-oxadiazol-2-yl)phenyl)benzamide]"
100,–,< 100,31,38,100/100%,"CCOc1ccc(C)cc1C(=O)Nc1cc(-c2nnc(-c3ccco3)o2)ccc1F [Compound 221, 2-Ethoxy-N-(2-fluoro-5-(5-(furan-2-yl)-1,3,4-oxadiazol-2-yl)phenyl)-5-methylbenzamide]"
100,–,< 35,8,85,97%,"CCOc1ccc(CC)cc1C(=O)Nc1cc(-c2nnc(-c3ccco3)o2)ccc1F [Compound 222, 2-Ethoxy-5-ethyl-N-(2-fluoro-5-(5-(furan-2-yl)-1,3,4-oxadiazol-2-yl)phenyl)benzamide]"
97,–,–,60,7,–,"COc1ccc(OC(F)(F)F)cc1C(=O)Nc1cccc(-c2nnc(-c3ccco3)o2)c1 [Compound 279, N-(3-(5-(Furan-2-yl)-1,3,4-oxadiazol-2-yl)phenyl)-2-methoxy-5-(trifluoromethoxy)benzamide]"
100,–,< 100,24,65,97%,"CCCc1ccc(OC)c(C(=O)Nc2cc(-c3nnc(-c4ccco4)o3)ccc2F)c1 [Compound 281, N-(2-Fluoro-5-(5-(furan-2-yl)-1,3,4-oxadiazol-2-yl)phenyl)-2-methoxy-5-propylbenzamide]"
96,–,< 100,30,31,–,"COc1ccc(C)cc1C(=O)Nc1cc(-c2nnc(-c3ccco3)o2)ccc1F [Compound 300, N-(2-Fluoro-5-(5-(furan-2-yl)-1,3,4-oxadiazol-2-yl)phenyl)-2-methoxy-5-methylbenzamide]"
97,–,–,36,20,–,"O=C(Nc1cc(-c2nnc(-c3ccco3)o2)ccc1F)c1ccccc1OC(F)F [Compound 302, 2-(Difluoromethoxy)-N-(2-fluoro-5-(5-(furan-2-yl)-1,3,4-oxadiazol-2-yl)phenyl)benzamide]"
98,–,< 100,20,31,96%,"O=C(Nc1cc(-c2nnc(-c3ccco3)o2)ccc1F)c1cc(Cl)ccc1OC(F)(F)F [Compound 304, 5-Chloro-N-(2-fluoro-5-(5-(furan-2-yl)-1,3,4-oxadiazol-2-yl)phenyl)-2-(trifluoromethoxy)benzamide]"
100,–,< 100,21,34,–,"O=C(Nc1cc(-c2nnc(-c3ccco3)o2)ccc1F)c1cc(Cl)ccc1OC(F)F [Compound 305, 5-Chloro-2-(difluoromethoxy)-N-(2-fluoro-5-(5-(furan-2-yl)-1,3,4-oxadiazol-2-yl)phenyl)benzamide]"

inhibition at 1 µM (ALCAT1 [1]) [%],inhibition at 10 µM (ALCAT1 [1]) [%],IC50 (ALCAT1 [1]; [3]) [nM],IC50 (ALCAT1 [1]; [4]) [nM],inhibition at 3 µM (ALCAT1 [2]) [%],% inh @ 1 μM (ALCAT1 [1]),SMILES
100,–,< 100,19,30,–,"O=C(Nc1cc(-c2nnc(-c3ccco3)o2)ccc1F)c1cc(Cl)ccc1OCF [Compound 306, 5-Chloro-N-(2-fluoro-5-(5-(furan-2-yl)-1,3,4-oxadiazol-2-yl)phenyl)-2-(fluoromethoxy)benzamide]"
30,–,–,–,–,–,Cc1c(C(=O)Nc2cc(-c3nnc(-c4ccco4)o3)ccc2F)cccc1[N+](=O)[O-] [Compound 332]
18,–,–,–,–,–,COc1ccc(C(=O)Nc2cc(-c3nnc(-c4ccco4)o3)ccc2F)cc1[N+](=O)[O-] [Compound 333]
35,–,–,–,–,–,Cc1ccc(C(=O)Nc2cc(-c3nnc(-c4ccco4)o3)ccc2F)cc1[N+](=O)[O-] [Compound 334]
66,–,–,–,–,–,O=C(Nc1cccc(-c2nnc(-c3ccco3)o2)c1)c1cc([N+](=O)[O-])ccc1F [Compound 336]
66,–,–,760,–,–,O=C(Nc1cccc(-c2nnc(-c3ccco3)o2)c1)c1cc([N+](=O)[O-])ccc1Cl [Compound 337]
65,–,–,–,–,–,O=C(Nc1cccc(-c2nnc(-c3ccco3)o2)c1)c1cc(F)cc([N+](=O)[O-])c1 [Compound 338]
72,–,–,–,–,–,O=C(Nc1cccc(-c2nnc(-c3ccco3)o2)c1)c1cccc([N+](=O)[O-])c1F [Compound 340]
73,–,–,500,–,–,COc1ccc([N+](=O)[O-])cc1C(=O)Nc1cccc(-c2nnc(-c3ccco3)o2)c1 [Compound 341]
41,–,–,–,–,–,COc1cc(C(=O)Nc2cccc(-c3nnc(-c4ccco4)o3)c2)cc([N+](=O)[O-])c1 [Compound 342]
33,–,–,–,–,–,O=C(Nc1cccc(-c2nnc(-c3ccco3)o2)c1)c1c(F)ccc([N+](=O)[O-])c1F [Compound 344]
24,–,–,–,–,–,O=C(Nc1cccc(-c2nnc(-c3ccco3)o2)c1)c1cncc([N+](=O)[O-])c1 [Compound 345]
94,–,–,–,–,–,O=C(Nc1cc(-c2nnc(-c3ccco3)o2)ccc1F)c1cc(Cl)ccc1Cl [Compound 347]
–,–,–,120,–,–,COc1ccc(Cl)cc1C(=O)Nc1cc(-c2nnc(-c3cnco3)o2)ccc1F [Compound 364]
63,68,–,–,–,–,CC(C)Oc1ccc(Br)cc1C(=O)Nc1cccc(-c2nnc(-c3ccco3)o2)c1 [Compound 477]
57,62,–,–,–,–,CC(C)Oc1ccc(Cl)cc1C(=O)Nc1cccc(-c2nnc(-c3ccco3)o2)c1 [Compound 478]
96,–,–,–,–,–,"COc1ccc(Cl)cc1NC(=O)c1cc(-c2nnc(-c3ccco3)o2)ccc1F [Compound 480, N-(5-chloro-2-methoxyphenyl)-2-fluoro-5-(5-(furan-2-yl)-1,3,4-oxadiazol-2-yl)benzamide]"
